From ChEMBL document CHEMBL1201862, “PubChem BioAssay data set” (2004)
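Each compound was tested at five concentrations against cells in 96-well plates for 48 hours. GI50 marks 50% less growth.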 Calls of active or inactive are those of the source. Rule as the data show it: active = GI50 up to about 1.1 µM and inactive = higher.

Experiments:
Test in all cases: growth of human tumour cells (NCI), 48 h
786-0 = tested on: 786-0
A498 = tested on: A498
A549 = tested on: A549
ACHN = tested on: ACHN
BT-549 = tested on: BT-549
CAKI-1 = tested on: CAKI-1
CCRF-CEM = tested on: CCRF-CEM
COLO 205 = tested on: COLO 205
DU-145 = tested on: DU-145
EKVX = tested on: EKVX
HCC 2998 = tested on: HCC 2998
HCT-116 = tested on: HCT-116
HCT-15 = tested on: HCT-15
HL-60 = tested on: HL-60
HOP-62 = tested on: HOP-62
HOP-92 = tested on: HOP-92
HT-29 = tested on: HT-29
Hs-578T = tested on: Hs-578T
IGROV-1 = tested on: IGROV-1
KM12 = tested on: KM12
M14 = tested on: M14
MCF7 = tested on: MCF7
MDA-MB-231 = tested on: MDA-MB-231
MDA-MB-435 = tested on: MDA-MB-435
MDA-N = tested on: MDA-N
MOLT-4 = tested on: MOLT-4
Malme-3M = tested on: Malme-3M
NCI-H226 = tested on: NCI-H226
NCI-H23 = tested on: NCI-H23
NCI-H460 = tested on: NCI-H460
NCI-H522 = tested on: NCI-H522
NCI/ADR-RES = tested on: NCI/ADR-RES
OVCAR-3 = tested on: OVCAR-3
OVCAR-4 = tested on: OVCAR-4
OVCAR-5 = tested on: OVCAR-5
OVCAR-8 = tested on: OVCAR-8
PC-3 = tested on: PC-3
RPMI-8226 = tested on: RPMI-8226
RXF 393 = tested on: RXF 393
SF-268 = tested on: SF-268
SF-295 = tested on: SF-295
SK-MEL-28 = tested on: SK-MEL-28
SK-MEL-2 = tested on: SK-MEL-2
SK-MEL-5 = tested on: SK-MEL-5
SK-OV-3 = tested on: SK-OV-3
SN12C = tested on: SN12C
SNB-19 = tested on: SNB-19
SNB-75 = tested on: SNB-75
SW-620 = tested on: SW-620
T47D = tested on: T47D
TK-10 = tested on: TK-10
U-251 = tested on: U-251
UACC-257 = tested on: UACC-257
UACC-62 = tested on: UACC-62
K562 = tested on: K562
LOX IMVI = tested on: LOX IMVI
SR = tested on: SR
UO-31 = tested on: UO-31

SMILES: CCSc1n/c(=C\c2ccc(N(C)C)cc2)c2nnnn12
- GI50 (786-0): > 100 µM (inactive)
- GI50 (A498): > 100 µM (inactive)
- GI50 (A549): > 100 µM (inactive)
- GI50 (ACHN): > 100 µM (inactive)
- GI50 (BT-549): > 100 µM (inactive)
- GI50 (CAKI-1): > 100 µM (inactive)
- GI50 (CCRF-CEM): > 100 µM (inactive)
- GI50 (COLO 205): > 100 µM (inactive)
- GI50 (DU-145): > 100 µM (inactive)
- GI50 (EKVX): > 100 µM (inactive)
- GI50 (HCC 2998): > 100 µM (inactive)
- GI50 (HCT-116): > 100 µM (inactive)
- GI50 (HCT-15): > 100 µM
- GI50 (HL-60): > 100 µM (inactive)
- GI50 (HOP-62): > 100 µM (inactive)
- GI50 (HOP-92): > 100 µM (inactive)
- GI50 (HT-29): > 100 µM (inactive)
- GI50 (Hs-578T): > 100 µM (inactive)
- GI50 (IGROV-1): > 100 µM (inactive)
- GI50 (KM12): > 100 µM (inactive)
- GI50 (M14): > 100 µM (inactive)
- GI50 (MCF7): > 100 µM (inactive)
- GI50 (MDA-MB-231): > 100 µM (inactive)
- GI50 (MDA-MB-435): > 100 µM (inactive)
- GI50 (MDA-N): > 100 µM (inactive)
- GI50 (MOLT-4): > 100 µM (inactive)
- GI50 (Malme-3M): > 100 µM (inactive)
- GI50 (NCI-H226): > 100 µM (inactive)
- GI50 (NCI-H23): > 100 µM (inactive)
- GI50 (NCI-H460): > 100 µM (inactive)
- GI50 (NCI-H522): > 100 µM (inactive)
- GI50 (NCI/ADR-RES): > 100 µM (inactive)
- GI50 (OVCAR-3): > 100 µM (inactive)
- GI50 (OVCAR-4): > 100 µM (inactive)
- GI50 (OVCAR-5): > 100 µM (inactive)
- GI50 (OVCAR-8): > 100 µM (inactive)
- GI50 (PC-3): > 100 µM (inactive)
- GI50 (RPMI-8226): > 100 µM (inactive)
- GI50 (RXF 393): > 100 µM (inactive)
- GI50 (SF-268): > 100 µM (inactive)
- GI50 (SF-295): 99.3 µM (inactive)
- GI50 (SK-MEL-28): > 100 µM (inactive)
- GI50 (SK-MEL-2): > 100 µM (inactive)
- GI50 (SK-MEL-5): > 100 µM (inactive)
- GI50 (SK-OV-3): > 100 µM (inactive)
- GI50 (SN12C): > 100 µM (inactive)
- GI50 (SNB-19): > 100 µM (inactive)
- GI50 (SNB-75): > 100 µM (inactive)
- GI50 (SW-620): > 100 µM (inactive)
- GI50 (T47D): > 100 µM (inactive)
- GI50 (TK-10): > 100 µM (inactive)
- GI50 (U-251): > 100 µM (inactive)
- GI50 (UACC-257): > 100 µM (inactive)
- GI50 (UACC-62): > 100 µM (inactive)

SMILES: CCC1(CC)C(=O)N(C(=O)c2ccccc2)N(C(=O)c2ccc(Cl)cc2)C1=O
- GI50 (786-0): > 75 µM (inactive)
- GI50 (A549): > 75 µM (inactive)
- GI50 (ACHN): > 75 µM (inactive)
- GI50 (BT-549): > 75 µM (inactive)
- GI50 (CAKI-1): > 75 µM (inactive)
- GI50 (CCRF-CEM): 12.7 µM (inactive)
- GI50 (COLO 205): > 75 µM (inactive)
- GI50 (DU-145): > 75 µM (inactive)
- GI50 (EKVX): > 75 µM (inactive)
- GI50 (HCC 2998): > 75 µM (inactive)
- GI50 (HCT-116): 43.9 µM (inactive)
- GI50 (HCT-15): 72.3 µM
- GI50 (HL-60): 22 µM (inactive)
- GI50 (HOP-62): > 75 µM (inactive)
- GI50 (HT-29): 58.6 µM (inactive)
- GI50 (Hs-578T): > 75 µM (inactive)
- GI50 (IGROV-1): > 75 µM (inactive)
- GI50 (K562): 32.9 µM (inactive)
- GI50 (KM12): > 75 µM (inactive)
- GI50 (LOX IMVI): 3.35 µM (inactive)
- GI50 (M14): > 75 µM (inactive)
- GI50 (MCF7): > 75 µM (inactive)
- GI50 (MDA-MB-231): > 75 µM (inactive)
- GI50 (MDA-MB-435): > 75 µM (inactive)
- GI50 (MDA-N): > 75 µM (inactive)
- GI50 (MOLT-4): 17 µM (inactive)
- GI50 (Malme-3M): > 75 µM (inactive)
- GI50 (NCI-H226): > 75 µM (inactive)
- GI50 (NCI-H23): > 75 µM (inactive)
- GI50 (NCI-H460): 36.6 µM (inactive)
- GI50 (NCI-H522): 25.4 µM (inactive)
- GI50 (NCI/ADR-RES): > 75 µM (inactive)
- GI50 (OVCAR-3): > 75 µM (inactive)
- GI50 (OVCAR-4): > 75 µM (inactive)
- GI50 (OVCAR-5): > 75 µM (inactive)
- GI50 (OVCAR-8): > 75 µM (inactive)
- GI50 (PC-3): > 75 µM (inactive)
- GI50 (RPMI-8226): 20 µM (inactive)
- GI50 (RXF 393): > 75 µM (inactive)
- GI50 (SF-268): > 75 µM (inactive)
- GI50 (SF-295): > 75 µM (inactive)
- GI50 (SK-MEL-28): > 75 µM (inactive)
- GI50 (SK-MEL-2): > 75 µM (inactive)
- GI50 (SK-MEL-5): > 75 µM (inactive)
- GI50 (SK-OV-3): > 75 µM (inactive)
- GI50 (SN12C): > 75 µM (inactive)
- GI50 (SNB-19): > 75 µM (inactive)
- GI50 (SNB-75): > 75 µM (inactive)
- GI50 (SR): 16.5 µM (inactive)
- GI50 (SW-620): 36.2 µM (inactive)
- GI50 (T47D): > 75 µM (inactive)
- GI50 (TK-10): > 75 µM (inactive)
- GI50 (U-251): 59.3 µM (inactive)
- GI50 (UACC-257): > 75 µM (inactive)
- GI50 (UACC-62): > 75 µM (inactive)
- GI50 (UO-31): > 75 µM (inactive)
